# From patent publication US10023615B2, “Efficient transport into white blood cells” (priority 2008, dated 2018)
# “Also recorded” adds a separate entry of the source. Ends that are not written are not given here.
# Assays:
# [1] = tested on: bleomycin induced lung fibrosis; assay: Bleomycin (BLM) induced lung fibrosis; format: in vivo, C57BL/6 mice; conditions: for cell recruitment in bronchoalveolar lavage space: 3 times in 10 days
# Text: In order to determine the activity of the exemplary all-D retro-inverso IB(s) peptide XG-102 (SEQ ID NO: 233) in the treatment of Chronic Obstructive Pulmonary Disease (COPD) XG-102 (SEQ ID NO: 233) is used in an animal model of Bleomycin induced acute lung inflammation and fibrosis. The protocol of bleomycin induced inflammation and fibrosis has been described before in the literature. The aim of the Experiment was to investigate the effect of XG-102 (SEQ ID NO: 233) by subcutaneous (s.c.) route on neutrophil recruitment in broncho alveolar lavage (BAL) and lung in bleomycin induced inflammation and fibrosis: • at 1 day after a single bleomycin administration (10 mg/kg) • and at day 10 with the development of fibrosis
# 1) Method and Experimental Approach • The test compound XG-102 (SEQ ID NO: 233) at two doses and vehicle control were given s.c. with a single intranasal administration of bleomycin and mice were analyzed after 1 and 10 days. The animals used in the model were 10 C57BL/6 mice (8 weeks old) per group. The experimental groups included vehicle, 0.001 mg/kg XG-102 (SEQ ID NO: 233) and 0.1 mg/kg XG-102 (SEQ ID NO: 233), and the treatment consisted of repeated sub-cutaneous administration of XG-102 (SEQ ID NO: 233), prior to bleomycin administration then every 3 days. Acute lung inflammation at 24 h was monitored by BAL lavage, cytology, cell counts, and lung myeloperoxidase activity. The effect of the compound was compared with vehicle controls. Lung fibrosis was assessed histologically using hematoxylin and eosin staining at day 10 after the single dose of bleomycin.
# 1.1) Bleomycin Administration • Bleomycin sulfate in saline (10 mg/kg body weight) from Bellon Laboratories (Montrouge, France) or saline were given through the airways by nasal instillation in a volume of 40 μL under light ketamine-xylasine anesthesia. […]
# 1.4) Cell Count and Determination • Total cell count was determined in BAL fluid using a Malassez hemocytometer. […]
# [2] = tested on: amyloid plaques in cortex and hippocampus; assay: Amyloid depositions and plaque load (6E10 IHC, ThioflavinS) in hAPP Tg mice; format: in vivo, mouse
# Experimental: a) METHODS • i) Introduction • The study was designed to evaluate the efficacy of the test substance (XG-102, SEQ ID NO: 233) on behavioral, biochemical and histological markers using 5 months (±2 weeks) old female hAPP Tg mice. Therefore, mice were treated every two or three weeks up to 4 months and in the end of the treatment period behavior was evaluated in the Morris Water Maze. At sacrifice brain, CSF and blood were collected. Aβ40 and Aβ42 levels were determined in four different brain homogenate fractions as well as in CSF of Tg mice. Plaque load was quantified in the cortex and the hippocampus of 8 Tg animals per treatment group.
# iv) Treatment • […] female hAPP transgenic mice were treated with either 0.1 mg/kg b.w./every two weeks or 10 mg/kg b.w./every three weeks of the test substance XG-102 (SEQ ID NO: 233) in two different dosages (n=12/group) or treated with the vehicle (n=12) s.c. once every three weeks over four months.
# viii) Evaluation of Brain Morphology • Brain tissues of all Tg animals investigated were handled in exactly the same way to avoid bias due to variation of this procedure. From brain halves of 24 Tg mice (8 of each group) 20 cryo-sections per layer (altogether 5 layers), each 10 μm thick (Leica CM 3050S) were sagittally cut and 5 (one from each layer) were processed and evaluated for quantification of plaque load. The five sagittal layers corresponded with the FIGS. 104 to 105, 107 to 108, 111 to 112, 115 to 116 and 118 to 119 according to the morphology atlas “The Mouse Brain” from Paxinos and Franklin (2nd edition). The first layer was specified by the requirement to include the whole hippocampus with it's regions CA1, CA2, CA3, GDlb and GDmb. Immunoreactivity was quantitatively evaluated in the hippocampus and in the cortex using the monoclonal human Aβ-specific antibody 6E10 (Signet) as well as ThioflavinS staining. Remaining brain hemispheres or tissue not used were saved and stored at JSW CNS until the end of the project.
# b) Evaluation • i) Behavior • In the Morris Water Maze trials length of swimming path, escape latencies, swimming speed and in the probe trial crossings over the former platform position and the time spent in each quadrant of the pool were measured for each Tg animal with a special computer software. • ii) Biochemical Evaluation • From all Tg mice CSF samples as well as samples from the brain preparations were analyzed with commercially available Aβ1-40 and Aβ1-42 ELISAs. Measurements of adequate standards were performed concurrently. Samples from brain preparations were analyzed in duplicates. […]
substance,measurement,setting,value
dqsrpvqpflnIttprkprpprrrqrrkkrg (DQSRPVQPFLNLTTPRKPRPPRRRQRRKKRG; not fully specified (some residues); printed as dqsrpvqpflnIttprkprpprrrqrrkkrg) [XG-102],cell recruitment in bronchoalveolar lavage space,[1]; 0.001 mg/kg s.c.,reduced significantly the lymphocyte recruitment and the number of total cells recruited; also recorded: decreases the Bleomycin-induced later inflammation
same,"histology: inflammatory cells accumulation, fibrotic areas, loss of lung architecture","[1]; 0.001 mg/kg, day 10",A decrease of these parameters was observed; also recorded: attenuates the Bleomycin-induced fibrosis
same,cell recruitment in bronchoalveolar lavage space,[1]; 0.1 mg/kg s.c.,had no effect
same,"mean plaque size (ThioflavinS, hippocampus)",[2]; 0.1 mg/kg,"reduced mean plaque size, however this effect did not reach significance level in the ANOVA"
same,6E10 IR plaque load (human amyloid),[2]; 10 mg/kg,increased versus vehicle; also recorded: a tendentious increase of human amyloid beta
same,"hippocampal ThioflavinS positive plaques (number, area percentage)",[2]; 0.1 and 10 mg/kg,a negatively dose dependent reduction; also recorded: dose dependently reduced
same,beta-sheet structures in plaques (6E10 and ThioflavinS quantifications),"[2]; mouse, in vivo",a selective reduction of beta-sheet structures in the center of the plaques
same,cortical ThioflavinS plaque load,"[2]; mouse, in vivo",not given for cortical plaques; also recorded: cortical plaque load remained unchanged
